In brackets after ≈: the same amount, converted by molar mass.
tested on: Mycobacterium tuberculosis H37Rv; assay: GSK_TB: Minimum inhibitory concentration against isoniazid and rifampicin resistant clinical isolates of Mycobacterium tuberculosis; type: functional; settings: ATCC25618

| Compound | MIC [µM] |
| --- | --- |
| CNc1snc(C)c1C(=O)NCCOc1ccc(OC)cc1 | 0.9 (≈ 0.289 µg/mL) |
| Nc1ccc(C(O)CNCCc2ccccc2)cc1O (centres undefined) | 1.3 (≈ 0.354 µg/mL) |
| CCOCn1ccc(NS(=O)(=O)c2ccc(N)cc2)nc1=O | 20 (≈ 6.49 µg/mL) |
| NC(=O)c1ccc(CN(C2CC2)S(=O)(=O)c2ccccc2F)cc1 | 5 (≈ 1.74 µg/mL) |
| COc1ccc(-c2nnc3sc(Cc4csc(C)n4)nn23)cc1 | 1.3 (≈ 0.446 µg/mL) |
| Clc1nnc(N2CCCC2)c2ccccc12 | 0.6 (≈ 0.14 µg/mL) |
| CN(Cc1ccc(Cl)cc1)C(=O)CCc1nc2ccccc2oc1=O | 1.3 (≈ 0.464 µg/mL) |
| O=C(Nc1nc2c(s1)CCCc1cccnc1-2)c1ccccc1C(F)(F)F | 1.3 (≈ 0.506 µg/mL) |
| COc1ccc(CCNC(=O)C2(n3cnnn3)CCCCC2)cc1 | 2.5 (≈ 0.824 µg/mL) |
